One data set relates to mouse sperm. In words: Mouse sperm total motility in vitro (CASA). Type of data set: cell-based. Conditions: for Emax: Mus musculus, Sperm, 1 h, nanomolar range concentration, read-out: Maximal Motility Inhibition (%); for Emax / Shape of inhibitory dose response on sperm motility: mouse sperm total motility. Here is the method:
To characterize the SAR of these compounds, we first evaluated their effects on total sperm motility in vitro. Sperm isolated from the cauda epididymis of mice were incubated with the test compounds in modified Whitten’s medium under non-capacitating conditions. Motility was assessed using a computer-assisted sperm analysis (CASA) system.
All experimental protocols involving animals used in this work were approved by the University of Kansas Medical Center Institutional Animal Care and Use Committee (ACUP number: 22-09-26, 10/2022). C57BL/6 mice were purchased from Harlan (Indianapolis, IN, USA). Spermatozoa were isolated from the cauda of adult mouse epididymis in Whitten’s medium, containing 100 mM NaCl, 4.7 mM KCl, 1.2 mM KH2PO4, 1.2 mM MgSO4, 5.5 mM glucose, 0.8 mM pyruvic acid, 4.8 mM lactic acid, and 40 mM Hepes, as previously described.
Spermatozoa (1 × 10^6 cells) were incubated at 37 °C in 100 μL of Whitten’s medium, with the addition of 1.7 mM CaCl2 and in the absence and presence of different amounts of the tested compounds for 60 min. Then, cells were labeled with the fluorescent nucleic acid stain SYTO 21, which allows for the tracking of the movement of the cell head. After 1 min of incubation with the dye, 5.5 μL aliquots from each sample were taken and placed into a glass cell chamber (Leja Products B.V., Nieuw-Vennep, The Netherlands). Sperm were maintained at 37 °C on a heated platform and viewed with an Olympus BX51 microscope (Olympus, Center Valley, PA, USA) through a 20× phase objective. Images of the moving sperm were captured using a CCD camera. Samples were analyzed by CASA using the Minitube SpermVision Digital Semen Evaluation system (version 3.5; Penetrating Innovations, Verona, WI, USA). An average of 200 cells/field were captured, at a rate of 30 frames per field, and a total of 10 fields in each sample were analyzed. Total sperm motility was obtained from sperm maintained in a non-capacitating medium, while for assessing the hyperactive pattern of motility, typical of sperm capacitation, cells were incubated in Whitten’s medium with the addition of 1.7 mM CaCl2, 25 mM sodium bicarbonate, and 0.5% bovine serum albumin.
Figure 2 Effect of simplified steroidal analogs on mouse sperm total motility. Sperm was isolated from the cauda epididymis and treated in the absence and presence of the indicated concentrations of each compound. After one hour of incubation, sperm motility was determined by CASA. Values are expressed as the mean ± SEM of three determinations.
Figure 4 Effect of non-steroidal small compounds on mouse sperm total motility. Sperm was isolated from the cauda epididymis and treated in the absence and presence of the indicated concentrations of each compound. After 1 h of incubation, sperm motility was determined by CASA. Values are expressed as the mean ± SEM of three determinations.

The nature of the next data set: Caco-2 cell permeability. The format is in vitro ADME, human. Conditions: human; for Papp A→B / recovery: Caco-2, Caco-2 cells; for Papp A→B: read-out: Papp (A-B); for Papp B→A / efflux ratio: Caco-2 cells; for efflux ratio: Papp(B-A)/Papp(A-B). On the procedure:
The in vitro permeability and potential to be transported by P-gp (P-glycoprotein) were determined in a Caco-2 or MDCK cell line. Values are reported for a mass recovery > 60%. The efflux ratio was determined as follows: P^app(B-A)/Papp(A-B). The experimental details are reported in the Supporting Information (Tables S2–S5).
The recovery can be determined using the following equation:
Recovery%=(VA×[drug]acceptor+VD×[drug]donor)/(VD×[drug]initial, donor)
Where VA is the volume (in mL) in the acceptor well (0.235 mL for Ap→Bl flux, and 0.075 mL for
Bl→Ap), VD is the volume (in mL) in the donor well (0.075 mL for Ap→Bl flux, and 0.235 mL for
The leakage of Lucifer Yellow, in unit of percentage (%), can be calculated using the following
%LY leakage = 100×[LY]acceptor×0.3/([LY]donor×0.1+[LY]acceptor×0.3)
LY leakage of <1% is acceptable to indicate the well-qualified MDCK/ Caco-2 monolayer.
Table S5 . The Assessment of Caco-2 Cell Monolayer Integrity
The apparent permeability coefficient (Papp), Efflux ratio (ER), recovery percentage, and LY leakage percentage can be
calculated for Caco-2 Cell drug transport assays using the above equations. […]
For orientation: Caco-2 cells form a polarised layer with tight junctions and transporters.

A short description of the next data set: MDCK cell permeability. Conditions: dog, MDCK; for Papp A→B / recovery: MDCK cells; for Papp A→B: BSA 0% for controls, 0.5% for 13.
Setting [1] is: non-steroidal small molecules, mouse sperm motility.
Setting [2] is: simplified steroid analogs, mouse sperm motility.

Where two headings read alike, the source gives them in different places.

As for `CC12CCC(=O)C=C1CCC2c1c[nH]nn1` [Compound 35, (1S,7aR)-7a-Methyl-1-(1H-1,2,3-triazol-4-yl)-1,2,3,6,7,7a-hexahydro-5H-inden-one], the Emax in the data set on mouse sperm (non-steroidal small molecules) came out at 47%. Also, it took 0.071 nM to reach half-maximal inhibition in the data set with mouse sperm (setting [1]) (IC50).

As for `C[C@]12CC[C@H]3[C@@H](CC=C4C[C@@H](O)CC[C@@]43C)[C@@H]1CC[C@@H]2c1c[nH]nn1` [Compound 15, (3S,8S,9S,10R,13S,14S,17S)-10,13-Dimethyl-17-(1H-1,2,3-triazol-4-yl)-2,3,4,7,8,9,10,11,12,13,14,15,16,17-tetradecahydro-1H-cyclopenta[a]phenanthren-3-ol], in the data set with mouse sperm (simplified steroid analogs), the Emax turned out to be 42%. Moreover, the “Shape of inhibitory dose response on sperm motility” value (“Shape of inhibitory dose response” below) in the data set with mouse sperm is reported as “monotonic inhibitory response”. Further, in the data set on mouse sperm (setting [2]), half-maximal inhibition (IC50) required 0.019 nM and the “IC50 (pM)” value was “sub-nanomolar range”.

As to `COc1cc2nc(N3CCN(C(=O)c4ccco4)CC3)nc(N)c2cc1OC` [Prazosin], in the data set “Caco-2 cell permeability”, the apical-to-basolateral permeability (Papp A→B) is 7.59 ×10⁻⁶ cm/s and the Papp B→A was 24.3 ×10⁻⁶ cm/s. Also, the recovery in “Caco-2 cell permeability” (read-out: Recovery (%) AP-BL) came out at 71.4%. For the same molecule, the recovery in “Caco-2 cell permeability” (read-out: Recovery (%) BL-AP) was found to be 85%.

Take `CC(C)NCC(O)COc1cccc2ccccc12` (centres unmarked) [Propranolol]: in “Caco-2 cell permeability”, the Papp A→B was determined as 24.4 ×10⁻⁶ cm/s, the Papp B→A turned out to be 16.4 ×10⁻⁶ cm/s and the efflux ratio is 0.67. Moreover, in “Caco-2 cell permeability” (read-out: Recovery (%) AP-BL), the recovery turned out to be 72.8%. In addition, the recovery in the data set “Caco-2 cell permeability” (read-out: Recovery (%) BL-AP) stood at 86.6%.

For `C[C@]12CC[C@H](OC(=O)[C@@H](N)CCCCN)CC1=CCC1C2CC[C@@]2(C)C1CC[C@@H]2c1cn(Cc2ccccc2)nn1.Cl.Cl` (stereo partly drawn) [Compound 19, (3S,10R,13S,17S)-17-(1-Benzyl-1H-1,2,3-triazol-4-yl)-10,13-dimethyl-2,3,4,7,8,9,10,11,12,13,14,15,16,17-tetradecahydro-1H-cyclopenta[a]phenanthren-3-yl L-Lysinate Dihydrochloride], the Emax with mouse sperm (simplified steroid analogs) is roughly 37%. Further, in the data set with mouse sperm, the “Shape of inhibitory dose response” value is “biphasic inhibition”. In the data set on mouse sperm (setting [2]), this molecule had an IC50 of 0.032 nM.

Take `C[C@]12CC[C@H]3[C@@H](CC=C4C[C@H](N5CCOCC5)CC[C@@]43C)[C@@H]1CC[C@H]2n1cc(-c2ccccc2)nn1` [Compound 26, 4-((3R,8R,9S,10R,13S,14S,17R)-10,13-Dimethyl-17-(4-phenyl-1H-1,2,3-triazol-1-yl)-2,3,4,7,8,9,10,11,12,13,14,15,16,17-tetradecahydro-1H-cyclopenta[a]phenanthren-3-yl)morpholine]: the Emax in the data set on mouse sperm (simplified steroid analogs) is roughly 40%. Further, the “Shape of inhibitory dose response” value in the data set with mouse sperm is “biphasic inhibition”. Further, in the data set with mouse sperm (setting [2]), the IC50 was 0.031 nM.

As to `COCCc1ccc(OCC(O)CNC(C)C)cc1` (centres unmarked) [Metoprolol], in “MDCK cell permeability”, the Papp B→A was found to be 17 ×10⁻⁶ cm/s, the efflux ratio turned out to be 0.79 and the Papp A→B turned out to be 21.6 ×10⁻⁶ cm/s. Besides, the recovery in “MDCK cell permeability” (Recovery (%) AP-BL) stood at 83.5%. In addition, the recovery in “MDCK cell permeability” (Recovery (%) BL-AP) stood at 97.1%.

Take `C[C@H]1O[C@@H](O[C@H]2[C@@H](O)C[C@H](O[C@H]3[C@@H](O)C[C@H](O[C@H]4CC[C@@]5(C)[C@H](CC[C@@H]6[C@@H]5C[C@@H](O)[C@]5(C)[C@@H](C7=CC(=O)OC7)CC[C@]65O)C4)O[C@@H]3C)O[C@@H]2C)C[C@H](O)[C@@H]1O` [Digoxin]: the Papp A→B in “Caco-2 cell permeability” was found to be 0.63 ×10⁻⁶ cm/s; in “MDCK cell permeability”, 1.01 ×10⁻⁶ cm/s. Further, the recovery came to 88.7% in “Caco-2 cell permeability” (read-out: Recovery (%) AP-BL), 107% in “Caco-2 cell permeability” (read-out: Recovery (%) BL-AP), 84% in “MDCK cell permeability” (Recovery (%) AP-BL) and 106% in the data set “MDCK cell permeability” (Recovery (%) BL-AP). For the same molecule, the figures for the Papp B→A in “Caco-2 cell permeability” and in the data set “MDCK cell permeability” were 18.8 ×10⁻⁶ cm/s and 3.29 ×10⁻⁶ cm/s, respectively. The efflux ratio in the data set “Caco-2 cell permeability” was 30; in “MDCK cell permeability” it was 3.26.

For `CC12CCC(=NN=C(N)N)C=C1CCCC2C=NN=C(N)N` (centres unmarked) [Compound 42, (E+Z)-2-((6-(2-Carbamimidoylhydrazineylidene)-8a-methyl-1,2,3,4,6,7,8,8a-octahydronaphthalen-1-yl)methylene)hydrazine-1-carboximidamide], the Emax with mouse sperm (non-steroidal small molecules) was found to be 49%. Also, in the data set on mouse sperm (setting [1]), the IC50 amounted to 0.302 nM.

For `C[C@]12CC[C@H]3[C@@H](CC=C4C[C@@H](O)CC[C@@]43C)[C@@H]1CC[C@H]2n1cc(-c2ccccc2)nn1` [Compound 24, (3S,8R,9S,10R,13S,14S,17R)-10,13-Dimethyl-17-(4-phenyl-1H-1,2,3-triazol-1-yl)-2,3,4,7,8,9,10,11,12,13,14,15,16,17-tetradecahydro-1H-cyclopenta[a]phenanthren-3-ol], in the data set with mouse sperm (simplified steroid analogs), the Emax was found to be 50%. Further, the “Shape of inhibitory dose response” value in the data set with mouse sperm is on record as “biphasic inhibition”. Besides, the IC50 in the data set with mouse sperm (setting [2]) turned out to be 0.015 nM.

On to `CC12CCC(=NN=C(N)N)C=C1CCCC2c1cn(Cc2ccccc2)nn1` (centres unmarked) [Compound 40, N’-(5-(1-Benzyl-1H-1,2,3-triazol-4-yl)-4a-methyl-4,4a,5,6,7,8-hexahydronaphthalen-2(3H)-ylidene)amidinohydrazone], for which the Emax in the data set with mouse sperm (non-steroidal small molecules) turned out to be 49%. The molecule further showed an IC50 in the data set on mouse sperm (setting [1]) of 0.06 nM.

Turning to `CC12CCC(=NN=C(N)N)C=C1CCC2C=NN=C(N)N` [Compound 41, (E+Z)-2-(((1S,7aR,E)-5-(2-Carbamimidoylhydrazineylidene)-7a-methyl-2,3,5,6,7,7a-hexahydro-1H-inden-1-yl)methylene)hydrazine-1-carboximidamide, reference compound], the Emax with mouse sperm (non-steroidal small molecules) amounted to 44%. The molecule also displayed an IC50 with mouse sperm (setting [1]) of 0.037 nM.

For the molecule `C[C@]12CCC(=O)C=C1CC[C@@H]2c1cn(Cc2ccccc2)nn1` [Compound 33, (1S,7aR)-1-(1-Benzyl-1H-1,2,3-triazol-4-yl)-7a-methyl-1,2,3,6,7,7a-hexahydro-5H-inden-5-one], in the data set on mouse sperm (non-steroidal small molecules), the Emax is 48%. The molecule also had an IC50 in the data set with mouse sperm (setting [1]) of 0.023 nM.

In general, IC50 refers to the concentration at which inhibition is half-maximal. Low readings indicate greater potency in that assay, high ones weaker potency in that assay. The Papp A→B is how fast a substance crosses the layer from the apical side. One may read the Papp B→A as the apparent permeability from the basolateral to the apical side of a cell layer. A word on the efflux ratio: it is the permeability from basolateral to apical divided by that in the opposite direction, in the common usage.

The values above are taken from PMC12192727, “Strategies to Develop Na,K-ATPase-α4 Inhibitors as Male Contraceptives” (International Journal of Molecular Sciences, 2025).
